Test results: patent US7135468B2, “Antibacterial compounds” (Abbott Laboratories, priority 2004, dated 2006)

Biological target: bacterial protein synthesis (S30 Streptococcus pneumoniae extract)
Assay: Translation assay, firefly luciferase reporter system with S30 Streptococcus pneumoniae extract
Format: biochemical, Streptococcus pneumoniae ATCC 46919
Conditions: cell-free S30 extract from quinolone-susceptible S. pneumoniae ATCC 46919, luciferase mRNA; read-out: IC50, concentration causing 50% inhibition of bacterial protein synthesis
Protocol: Bacterial protein synthesis inhibitory activity of representative compounds of this invention having formula (I) and the commercially-available antibacterials in TABLE 2 was determined by translation assays using the firefly luciferase reporter system described by Murray et al., (2001), “Staphylococcus aureus Cell Extract Transcription-Translation Assay: Firefly Luciferase Reporter System for Evaluating Protein Translation Inhibitors,” Antimicrob. Agents Chemother. 45(6): 1900–1904, but replacing the Staphylococcus aureus S30 extract described therein with S30 Streptococcus pneumoniae extract from quinolone-succeptable Streptococcus pneumoniae ATCC 46919, and replacing plasmid coding for the luciferase gene with mRNA (encoding produced by in an in vitro environment transcription from the plasmid pAS10rbs3) which encoded the luciferase gene with an upstream Streptococcus pneumoniae promoter and Shine-Dalgarno site.

CC(=O)NC[C@H]1CN(c2ccc(N3CCOCC3)c(F)c2)C(=O)O1 [Linezolid]
IC50: ~3000 nM
